The subject of this test is Anopheles stephensi. Put plainly: Insecticidal activity against fourth instar larvae of Anopheles stephensi assessed as mortality after 24 hrs. In kind it is functional.

Converted amounts (≈) assume the structure as drawn.

As usually defined, the LC50 is the concentration lethal to half of the exposed cells or organisms. As for `CC(=O)O[C@@H]1[C@H](O)[C@H]2C(C)(C)C(=O)C=C[C@]2(C)[C@H]2CC[C@]3(C)C(=CC[C@H]3C3=COCC3)[C@]12C`, the LC50 was found to be 60 µg/mL (≈ 132 µM).
In the case of `CC(=O)O[C@@H]1[C@H](O)[C@H]2C(C)(C)C(=O)C=C[C@]2(C)[C@H]2CC[C@@]3(C)CC(=O)C=C3[C@]12C`, the LC50 stood at 43 µg/mL (≈ 107 µM).
